ChEMBL document CHEMBL4270577, “Synthesis, anticancer activity and molecular modeling studies of 1,2,4-triazole derivatives as EGFR inhibitors” (Eur J Med Chem, 2018)

Experiments:
PANC-1 = assay: Antiproliferative activity against human PANC1 cells after 48 hrs by propidium iodide staining-based fluorometric analysis; type: functional, cell-based; conditions: PANC-1, 48 h
EKVX = assay: Growth inhibition of human EKVX cells at 10 uM incubated for 48 hrs by sulforhodamine B assay relative to control; type: functional; conditions: read-out: GI
KM12 = assay: Growth inhibition of human KM12 cells at 10 uM incubated for 48 hrs by sulforhodamine B assay relative to control; type: functional; conditions: KM12, 48 h, read-out: GI
DU-145 [1] = assay: Cytotoxicity against human DU145 cells incubated for 48 hrs by sulforhodamine B assay; type: functional; conditions: DU-145, 48 h
SR [2] = assay: Cytotoxicity against human SR cells incubated for 48 hrs by sulforhodamine B assay; type: functional
MCF7 = assay: Cytotoxicity against human MCF7 cells incubated for 48 hrs by sulforhodamine B assay; type: functional; conditions: MCF7, 48 h
DU-145 [3] = assay: Growth inhibition of human DU145 cells at 10 uM incubated for 48 hrs by sulforhodamine B assay relative to control; type: functional; conditions: DU-145, 48 h, read-out: GI
OVCAR-3 = assay: Growth inhibition of human OVCAR3 cells at 10 uM incubated for 48 hrs by sulforhodamine B assay relative to control; type: functional; conditions: OVCAR-3, 48 h, read-out: GI
HCC 2998 = assay: Cytotoxicity against human HCC2998 cells incubated for 48 hrs by sulforhodamine B assay; type: functional; conditions: HCC 2998, 48 h
MOLT-4 = assay: Growth inhibition of human MOLT4 cells at 10 uM incubated for 48 hrs by sulforhodamine B assay relative to control; type: functional; conditions: MOLT-4, 48 h, read-out: GI
HT-29 = assay: Growth inhibition of human HT-29 cells at 10 uM incubated for 48 hrs by sulforhodamine B assay relative to control; type: functional; conditions: HT-29, 48 h, read-out: GI
CCRF-CEM = assay: Growth inhibition of human CCRF-CEM cells at 10 uM incubated for 48 hrs by sulforhodamine B assay relative to control; type: functional; conditions: read-out: GI
PC-3 [4] = assay: Cytotoxicity against human PC3 cells incubated for 48 hrs by sulforhodamine B assay; type: functional; conditions: PC-3, 48 h
[5] = molecular target: Epidermal growth factor receptor (Homo sapiens, UniProt P00533); assay: Inhibition of His6-tagged recombinant EGFR cytoplasmic domain (645 to 1186 residues) (unknown origin) expressed in baculovirus infected Sf9 insect cells preincubated for 10 mins followed by ATP-MgCl2 addition and measured after 1 hr by DELFIA/time-resolved fluorometric analysis
SR [6] = assay: Growth inhibition of human SR cells at 10 uM incubated for 48 hrs by sulforhodamine B assay relative to control; type: functional; conditions: read-out: GI
HCT-15 = assay: Cytotoxicity against human HCT15 cells incubated for 48 hrs by sulforhodamine B assay; type: functional; conditions: HCT-15, 48 h
RXF 393 = assay: Growth inhibition of human RXF393 cells at 10 uM incubated for 48 hrs by sulforhodamine B assay relative to control; type: functional; conditions: RXF 393, 48 h, read-out: GI
SN12C [7] = assay: Growth inhibition of human SN12C cells at 10 uM incubated for 48 hrs by sulforhodamine B assay relative to control; type: functional; conditions: read-out: GI
A549 = assay: Growth inhibition of human A549/ATCC cells at 10 uM incubated for 48 hrs by sulforhodamine B assay relative to control; type: functional; conditions: A549, 48 h, read-out: GI
MDA-MB-468 = assay: Growth inhibition of human MDA-MB-468 cells at 10 uM incubated for 48 hrs by sulforhodamine B assay relative to control; type: functional; conditions: MDA-MB-468, 48 h, read-out: GI
HOP-62 = assay: Cytotoxicity against human HOP62 cells incubated for 48 hrs by sulforhodamine B assay; type: functional; conditions: HOP-62, 48 h
SNB-19 [8] = assay: Cytotoxicity against human SNB19 cells incubated for 48 hrs by sulforhodamine B assay; type: functional; conditions: SNB-19, 48 h
NCI-H460 = assay: Antiproliferative activity against human H460 cells after 48 hrs by propidium iodide staining-based fluorometric analysis; type: functional, cell-based; conditions: NCI-H460, 48 h
ACHN = assay: Growth inhibition of human ACHN cells at 10 uM incubated for 48 hrs by sulforhodamine B assay relative to control; type: functional; conditions: read-out: GI
PC-3 [9] = assay: Growth inhibition of human PC3 cells at 10 uM incubated for 48 hrs by sulforhodamine B assay relative to control; type: functional; conditions: PC-3, 48 h, read-out: GI
UACC-62 = assay: Growth inhibition of human UACC62 cells at 10 uM incubated for 48 hrs by sulforhodamine B assay relative to control; type: functional; conditions: UACC-62, 48 h, read-out: GI
SW-620 = assay: Cytotoxicity against human SW620 cells incubated for 48 hrs by sulforhodamine B assay; type: functional; conditions: SW-620, 48 h
T47D = assay: Growth inhibition of human T47D cells at 10 uM incubated for 48 hrs by sulforhodamine B assay relative to control; type: functional; conditions: read-out: GI
SF-295 = assay: Growth inhibition of human SF295 cells at 10 uM incubated for 48 hrs by sulforhodamine B assay relative to control; type: functional; conditions: SF-295, 48 h, read-out: GI
SN12C [10] = assay: Cytotoxicity against human SN12C cells incubated for 48 hrs by sulforhodamine B assay; type: functional
MDA-MB-231 = assay: Growth inhibition of human MDA-MB-231/ATCC cells at 10 uM incubated for 48 hrs by sulforhodamine B assay relative to control; type: functional; conditions: MDA-MB-231, 48 h, read-out: GI
SK-MEL-5 = assay: Growth inhibition of human SK-MEL-5 cells at 10 uM incubated for 48 hrs by sulforhodamine B assay relative to control; type: functional; conditions: SK-MEL-5, 48 h, read-out: GI
SNB-19 [11] = assay: Growth inhibition of human SNB19 cells at 10 uM incubated for 48 hrs by sulforhodamine B assay relative to control; type: functional; conditions: SNB-19, 48 h, read-out: GI
HL-60(TB) = assay: Growth inhibition of human HL-60(TB) cells at 10 uM incubated for 48 hrs by sulforhodamine B assay relative to control; type: functional; conditions: HL-60, 48 h, read-out: GI
[12] = read-out: LC50 (the source's name)

Chain of Epidermal growth factor receptor (P00533 whole entry, the tested form may be a part): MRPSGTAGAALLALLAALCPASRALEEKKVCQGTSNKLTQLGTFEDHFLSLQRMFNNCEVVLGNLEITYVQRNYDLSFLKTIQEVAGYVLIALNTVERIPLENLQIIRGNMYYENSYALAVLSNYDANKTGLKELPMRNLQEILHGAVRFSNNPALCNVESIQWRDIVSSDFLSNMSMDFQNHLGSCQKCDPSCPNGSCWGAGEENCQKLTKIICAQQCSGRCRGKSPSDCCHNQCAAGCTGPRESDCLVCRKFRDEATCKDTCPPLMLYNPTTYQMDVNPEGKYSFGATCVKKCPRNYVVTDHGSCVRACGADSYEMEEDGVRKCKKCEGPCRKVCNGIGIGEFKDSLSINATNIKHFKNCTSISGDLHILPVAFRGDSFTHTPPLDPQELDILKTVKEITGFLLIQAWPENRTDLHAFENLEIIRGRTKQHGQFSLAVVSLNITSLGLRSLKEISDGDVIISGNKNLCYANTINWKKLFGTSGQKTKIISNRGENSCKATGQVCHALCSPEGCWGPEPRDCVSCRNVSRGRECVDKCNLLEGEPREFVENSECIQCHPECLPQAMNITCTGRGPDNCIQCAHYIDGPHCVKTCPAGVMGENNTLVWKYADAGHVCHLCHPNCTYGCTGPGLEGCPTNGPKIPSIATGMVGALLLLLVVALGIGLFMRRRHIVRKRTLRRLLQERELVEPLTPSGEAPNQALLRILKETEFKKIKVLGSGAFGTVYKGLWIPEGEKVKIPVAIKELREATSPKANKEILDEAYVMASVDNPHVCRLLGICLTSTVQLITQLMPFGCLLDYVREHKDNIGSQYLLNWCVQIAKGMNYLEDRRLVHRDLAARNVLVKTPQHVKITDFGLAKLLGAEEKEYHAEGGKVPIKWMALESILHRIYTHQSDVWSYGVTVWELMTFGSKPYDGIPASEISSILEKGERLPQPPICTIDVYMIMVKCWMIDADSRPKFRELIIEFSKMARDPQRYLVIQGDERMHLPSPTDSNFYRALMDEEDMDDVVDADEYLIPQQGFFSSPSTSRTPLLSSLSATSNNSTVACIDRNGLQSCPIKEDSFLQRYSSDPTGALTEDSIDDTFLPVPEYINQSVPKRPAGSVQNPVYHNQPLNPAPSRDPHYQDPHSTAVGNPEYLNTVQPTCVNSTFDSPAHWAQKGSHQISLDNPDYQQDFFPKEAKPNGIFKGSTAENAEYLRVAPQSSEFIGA

COc1ccc(-c2nc3sc(-c4ccc(Cl)cc4)cn3n2)cc1
IC50 (PANC-1): 2.8 µM | inhibition of growth at 10 µM (EKVX): 52.5% | inhibition of growth at 10 µM (KM12): 45.3% | GI50 (DU-145 [1]): > 50 µM | TGI (DU-145 [1]): > 50 µM | CC50 (DU-145 [1]; [12]): > 50 µM | GI50 (SR [2]): 4.53 µM | TGI (SR [2]): 26.1 µM | CC50 (SR [2]; [12]): > 50 µM | GI50 (MCF7): 2.62 µM | TGI (MCF7): > 50 µM | CC50 (MCF7; [12]): > 50 µM | inhibition of growth at 10 µM (DU-145 [3]): 19.3% | inhibition of growth at 10 µM (OVCAR-3): 75.3% | GI50 (HCC 2998): > 50 µM | TGI (HCC 2998): > 50 µM | CC50 (HCC 2998; [12]): 39.4 µM | inhibition of growth at 10 µM (MOLT-4): 17.4% | inhibition of growth at 10 µM (HT-29): 82.7% | inhibition of growth at 10 µM (CCRF-CEM): 30.5% | GI50 (PC-3 [4]): > 50 µM | TGI (PC-3 [4]): > 50 µM | CC50 (PC-3 [4]; [12]): > 50 µM | IC50 [5]: 1.5 µM | inhibition of growth at 10 µM (SR [6]): 48.9% | GI50 (HCT-15): 24.5 µM | TGI (HCT-15): > 50 µM | CC50 (HCT-15; [12]): > 50 µM | inhibition of growth at 10 µM (RXF 393): 41% | inhibition of growth at 10 µM (SN12C [7]): 94.7% | inhibition of growth at 10 µM (A549): -30% | inhibition of growth at 10 µM (MDA-MB-468): 66.6% | GI50 (HOP-62): 2.36 µM | TGI (HOP-62): > 50 µM | CC50 (HOP-62; [12]): > 50 µM | GI50 (SNB-19 [8]): 2.47 µM | TGI (SNB-19 [8]): > 50 µM | CC50 (SNB-19 [8]; [12]): > 50 µM | IC50 (NCI-H460): 1.6 µM | inhibition of growth at 10 µM (ACHN): -74% | inhibition of growth at 10 µM (PC-3 [9]): 41.9% | inhibition of growth at 10 µM (UACC-62): 31.4% | GI50 (SW-620): 5.51 µM | TGI (SW-620): > 50 µM | CC50 (SW-620; [12]): > 50 µM | inhibition of growth at 10 µM (T47D): 45.1% | inhibition of growth at 10 µM (SF-295): 75.8% | GI50 (SN12C [10]): 1.84 µM | TGI (SN12C [10]): > 50 µM | CC50 (SN12C [10]; [12]): > 50 µM | inhibition of growth at 10 µM (MDA-MB-231): 86.7% | inhibition of growth at 10 µM (SK-MEL-5): 27.4% | inhibition of growth at 10 µM (SNB-19 [11]): -1.95%

c1ccc(-c2nc3sc(-c4ccccc4)cn3n2)cc1
IC50 (PANC-1): 7.2 µM | inhibition of growth at 10 µM (EKVX): 21% | inhibition of growth at 10 µM (KM12): 18% | inhibition of growth at 10 µM (HL-60(TB)): 21% | inhibition of growth at 10 µM (DU-145 [3]): 15% | inhibition of growth at 10 µM (OVCAR-3): 16% | inhibition of growth at 10 µM (MOLT-4): 11% | inhibition of growth at 10 µM (HT-29): 9% | inhibition of growth at 10 µM (CCRF-CEM): 13% | IC50 [5]: 9.8 µM | inhibition of growth at 10 µM (SR [6]): 9% | inhibition of growth at 10 µM (RXF 393): 9% | inhibition of growth at 10 µM (SN12C [7]): 20% | inhibition of growth at 10 µM (A549): 10% | inhibition of growth at 10 µM (MDA-MB-468): 14% | IC50 (NCI-H460): 8.3 µM | inhibition of growth at 10 µM (ACHN): 14% | inhibition of growth at 10 µM (PC-3 [9]): 37% | inhibition of growth at 10 µM (UACC-62): 33% | inhibition of growth at 10 µM (T47D): 63% | inhibition of growth at 10 µM (MDA-MB-231): 35% | inhibition of growth at 10 µM (SK-MEL-5): 20% | inhibition of growth at 10 µM (SNB-19 [11]): 11%
